Source: patent US20100234454A1 (priority 2006, published 2010)

Assays:
[1] = tested on: rats; test: Flinches in rats after intraplantar injection of capsaicin; assay type: in vivo, rat
[2] = tested on: rats; conditions: rat, in vivo

Row | SMILES | number of flinches (mean) after intraplantar capsaicin alone ([1]; 10 μg capsaicin intraplantar, 4 minutes observation, n=6) | reduction of induced pain effect [2] | dose needed to decrease half of the number of flinches induced by the venom ([2]; sc) | dose of maximal analgesic effect ([2]; sc) | number of flinches (mean) after intraplantar capsaicin following BCTC conditioning ([1]; 40 mg/kg BCTC s.c. one hour before capsaicin, 4 minutes, p<0.05, n=6)
1 | COc1cc(CNC(=O)CCCC/C=C/C(C)C)ccc1O [capsaicin] | 76.0 | – | – | – | –
2 | CC(C)(C)c1ccc(NC(=O)N2CCN(c3ncccc3Cl)CC2)cc1 [BCTC, N-(4-Tertiarybutylphenyl)-4-(3-cholorphyridin-2-yl)tetrahydropyrazine-1(2H)-carbox-amide] | – | 79% | 10 to 40 mg/kg | 40 mg/kg | 4.2
